From the supplement of paper PMC10307832

Key:
Test in all cases: relative viability (nuclei count vs DMSO), 5 days (fraction); higher = more cells survive
AT-7519 + Dasatinib = compound: O=C(NC1CCNCC1)c1n[nH]cc1NC(=O)c1c(Cl)cccc1Cl [AT-7519] + Cc1nc(Nc2ncc(C(=O)Nc3c(C)cccc3Cl)s2)cc(N2CCN(CCO)CC2)n1 [Dasatinib] (partner 0.075 µM)
Method in brief: (§1)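 Cells from lung cancer lines were seeded into 1536-well plates and, one day later, dosed by pin tool. Treatments were either a single drug or a fixed dose of an anchor drug with five library-drug doses (not always all listed) in √10 steps. After 5 days, nuclei were stained in a one-step fixation (final 0.05% Triton X-100, 1% formaldehyde, 1 ug/ml Hoechst) and counted on 4× images, and relative viability is the treated-to-vehicle nuclei ratio, as the median of duplicate plates.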

AT-7519 + Luminespib = compound: O=C(NC1CCNCC1)c1n[nH]cc1NC(=O)c1c(Cl)cccc1Cl [AT-7519] + CCNC(=O)c1noc(-c2cc(C(C)C)c(O)cc2O)c1-c1ccc(CN2CCOCC2)cc1 [Luminespib] (partner 0.01 µM)
Method in brief: as §1

[1] = compound: C1=CC2=C(C=C(C(=C2N=C1)O)N=NC3=CC4=C(C=C3)C=C(C=C4)S(=O)(=O)O)S(=O)(=O)O + Nc1ncn([C@H]2C[C@H](O)[C@@H](CO)O2)c(=O)n1 [Decitabine] (partner 2 µM)
Method in brief: as §1

[2] = compound: C1=CC2=C(C=C(C(=C2N=C1)O)N=NC3=CC4=C(C=C3)C=C(C=C4)S(=O)(=O)O)S(=O)(=O)O + CC(C)C[C@H](NC(=O)[C@H](Cc1ccccc1)NC(=O)c1cnccn1)B(O)O [Bortezomib] (partner 0.002 µM)
Method in brief: as §1

Cell Line | relative viability (AT-7519 + Dasatinib; first compound 0.01 µM) | relative viability (AT-7519 + Dasatinib; first compound 0.03162 µM) | relative viability (AT-7519 + Dasatinib; first compound 0.3162 µM) | relative viability (AT-7519 + Dasatinib; first compound 1 µM) | relative viability (AT-7519 + Luminespib; first compound 0.01 µM) | relative viability (AT-7519 + Luminespib; first compound 0.03162 µM) | relative viability (AT-7519 + Luminespib; first compound 0.3162 µM) | relative viability (AT-7519 + Luminespib; first compound 1 µM) | relative viability ([1]; first compound 0.08 µM) | relative viability ([1]; first compound 0.253 µM) | relative viability ([1]; first compound 0.8 µM) | relative viability ([1]; first compound 2.53 µM) | relative viability ([1]; first compound 8 µM) | relative viability ([2]; first compound 0.08 µM) | relative viability ([2]; first compound 0.253 µM) | relative viability ([2]; first compound 0.8 µM) | relative viability ([2]; first compound 2.53 µM) | relative viability ([2]; first compound 8 µM)
201T | 0.586 | 0.528 | 0.609 | 0.662 | 1.12 | 1.07 | 1.04 | 1.05 | 0.887 | 0.848 | 0.873 | 0.87 | 0.845 | 1.09 | 1.1 | 1.07 | 1.11 | 1
A549 |  |  |  |  |  |  |  |  | 0.4 | 0.252 | 0.286 | 0.231 | 0.207 |  |  |  |  | 
A-427 | 0.702 | 0.675 | 0.707 | 0.391 | 1.07 | 0.88 | 1.06 | 0.184 | 0.558 | 0.554 | 0.534 | 0.547 | 0.551 | 0.956 | 1.02 | 0.981 | 1.04 | 0.966
ABC-1 | 0.525 | 0.617 | 0.398 | 0.262 | 0.75 | 0.582 | 0.347 | 0.206 | 1.14 | 1.16 | 0.936 | 1.39 | 1.09 | 0.277 | 0.393 | 0.281 | 0.246 | 0.226
BEN | 0.354 | 0.321 | 0.399 | 0.331 | 0.303 | 0.307 | 0.231 | 0.361 | 0.735 | 0.745 | 0.635 | 0.804 | 0.688 | 0.967 | 0.75 | 0.776 | 0.875 | 0.873
CAL-12T | 0.532 | 0.404 | 0.214 | 0.0899 | 0.438 | 0.509 | 0.15 | 0.0831 |  |  |  |  |  | 0.843 | 0.914 | 0.788 | 0.979 | 1.03
COR-L23 | 0.434 | 0.513 | 0.369 | 0.137 | 1 | 0.867 | 0.273 | 0.116 | 0.495 | 0.448 | 0.421 | 0.508 | 0.407 | 0.982 | 0.953 | 1.06 | 0.962 | 1.03
COR-L 105 | 0.366 | 0.334 | 0.259 | 0.23 | 0.776 | 0.942 | 0.68 | 0.521 | 0.711 | 0.705 | 0.65 | 0.647 | 0.567 | 0.806 | 0.662 | 0.83 | 0.87 | 0.757
Calu-6 |  |  |  |  |  |  |  |  |  |  |  |  |  | 0.982 | 1.07 | 1.05 | 1.06 | 1.02
ChaGo-K-1 | 0.583 | 0.501 | 0.611 | 0.543 | 0.607 | 0.544 | 0.669 | 0.522 | 0.54 | 0.534 | 0.532 | 0.439 | 0.528 | 1.05 | 1.03 | 0.986 | 0.958 | 0.557
EBC-1 |  |  |  |  |  |  |  |  |  |  |  |  |  | 0.648 | 0.515 | 0.585 | 0.494 | 0.636
EKVX | 0.526 | 0.388 | 0.346 | 0.449 | 0.988 | 0.845 | 0.846 | 0.774 | 0.334 | 0.366 | 0.366 | 0.325 | 0.263 | 1.15 | 0.781 | 0.987 | 1.11 | 1.01
EMC-BAC-2 | 0.358 | 0.327 | 0.296 | 0.227 | 1.21 | 1.17 | 1.19 | 1.14 | 1.03 | 0.991 | 0.953 | 1.05 | 0.98 | 1.1 | 1.06 | 1.06 | 1.14 | 1
EPLC-272H | 0.325 | 0.339 | 0.382 | 0.248 | 0.226 | 0.216 | 0.37 | 0.0726 | 0.415 | 0.372 | 0.37 | 0.438 | 0.375 | 0.895 | 0.917 | 0.935 | 0.924 | 0.902
H3255 | 0.441 | 0.417 | 0.409 | 0.313 | 0.902 | 0.936 | 0.938 | 0.974 | 0.652 | 0.635 | 0.58 | 0.655 | 0.585 | 0.719 | 0.685 | 0.802 | 0.875 | 0.741
HARA | 0.265 | 0.28 | 0.314 | 0.211 | 0.71 | 0.533 | 0.412 | 0.398 | 0.69 | 0.584 | 0.52 | 0.519 | 0.563 | 1.14 | 1.08 | 1.03 | 1.13 | 1.01
HCC-15 | 0.669 | 0.584 | 0.433 | 0.191 | 0.293 | 0.413 | 0.343 | 0.214 | 0.723 | 0.689 | 0.637 | 0.625 | 0.596 | 1.16 | 1.02 | 1.02 | 0.985 | 0.992
